Results from patent publication US5843941A, “Ras farnesyl transferase inhibitors” (Genentech, Inc., priority 1994, dated 1998).
Where two headings read alike, the source gives them in different places.

How the values were obtained:
[1] = tested on: farnesylated proteins F1, F2 and F3 in Met18b-2 cells; experiment: Inhibition of intracellular farnesylation in intact Met18b-2 cells, Triton-soluble proteins F1, F2, F3; format: cell-based, Chinese hamster; details: for EC90: Cricetulus griseus, read-out: EC 90% "B isomer"
From the text: To study farnesylation in intact cells we used Met18b-2 cells, a line of Chinese hamster ovary (CHO) cells that takes up [3H]mevalonate efficiently (see Faust, J., and Krieger, M. J. Biol. Chem. 262, 1966 (1987)) owing to the production of a mevalonate transport protein (see Kim, C. M., Goldstein, J. L., Brown, M. S. J. Biol. Chem. 267, 23113 (1992)). The [3H]mevalonate is converted by the cells into [3H]farnesyl pyrophosphate and [3H]geranylgeranyl pyrophosphate, which are then attached to proteins (Kim, C. M., Goldstein, J. L., Brown, M. S. J. Biol. Chem. 267, 23113 (1992)). In the assay, stock cultures of Met18b-2 cells were seeded at a density of 3-105 cells per 60 mm dish in 3 ml of medium A (Dulbecco's modified Eagle medium/Ham's F12 medium (1:1, v/v) containing 100 U/ml penicillin and 100 μg/ml streptomycin) supplemented with 5% (v/v) fetal calf serum (FCS). On day 3, each monolayer was refed with 1 ml medium A supplemented with 1% FCS (dialyzed against 0.15 M NaCl). At this point the cells were treated with 100 μM compactin (see Brown, M. S., Faust, J. R., Goldstein, J. L., Kaneko, I., and Endo, A. J. Biol. Chem. 253, 1121 (1978)) which blocks the synthesis of unlabeled mevalonate within the cells. Each compound was dissolved at 25 mM in DMSO/10 mM DTT immediately before use and 10 μl of this solution added directly. After 2 hr incubation at 37° C., each monolayer received 100 μCi [3H]mevalonate (60 Ci/mmol, American Radiolabeled Chemicals, Inc.) added in 100 μl of the medium A, and the incubation continued for 4 hr. The cells were harvested by rinsing three times with 3 ml of 50 mM Tris-HCl/0.15 M NaCl (pH 7.5). 300 μl of lysis buffer (0.5X Dulbecco's phosphate-buffered saline containing 1% Triton X-100, 5 μg/ml leupeptin, 5 μg/ml pepstatin, 0.5 mM phenylmethylsulfonyl fluoride, and 0.05 U/ml aprotinin) was added to each monolayer. After incubation on ice for 5 mon, the lysates were centrifuged 30 sec in a microfuge at 12,000 g. The resulting supernatant was tranferred to a new tube, and each pellet was resuspended in 60 μl of lysis buffer. Protein concentrations were determined using the BCA protein assay reagent (Pierce) according to the manufacturer's instructions. Detergent-soluble (supernatant) and -insoluble (pellet) samples were mixed with 2X SDS sample buffer (see Laemmli, U. K. Nature 227, 680 (1970)) and heated at 95° C. for 5 min before electrophoresis. Each lane contained 90 μg protein, and was run on a 12.5% SDS-polyacrylamide gel. The gel was dried, treated with ENTENSIFY (NEN-DuPont), and exposed to Kodak XOMAT-AR film for 9 h at -80° C. to allow visualization of all prenylated proteins. Migration of [14C]methylated molecular weight standards (Amersham) were used as markers.
The results of this assay are shown in FIG. 3, using a final concentration of 250 μM for each inhibitor. […] As shown in the figure, none of the control peptides or control benzodiazepine-peptideomimetics altered the prenylation of proteins in intact cells.
Using the same cells and procedures followed above for Example 125, we measured the dose dependence upon the inhibition of farnesylation in intact cells. […] Compound 37B inhibited the famesylation of F1-3 detectably at 10 μM, and almost completely at 25 μM.
In this manner, it is possible to obtain data regarding the comparative potency of these inhibitors upon the level of intracellular farnesylation. We have chosen to report the EC90% values for these inhibitors as the concentration required for a reduction in the Triton- soluble labelling (denoted F-1, F-2, and F-3) to 90% of control cells (untreated).

CAAX farnesyltransferase [2] = biological target: T1, CAAX farnesyltransferase (Rattus norvegicus, UniProt Q02293+Q04631); experiment: In vitro inhibition of CAAX farnesyltransferase; format: biochemical; parameters: purified to homogeneity from rat brain homogenates; from tissue; host or cells: rat brain; alternatively recombinant enzyme from a baculovirus expression system; details: Table D
T1 sequence (Q02293 whole entry, one chain of several): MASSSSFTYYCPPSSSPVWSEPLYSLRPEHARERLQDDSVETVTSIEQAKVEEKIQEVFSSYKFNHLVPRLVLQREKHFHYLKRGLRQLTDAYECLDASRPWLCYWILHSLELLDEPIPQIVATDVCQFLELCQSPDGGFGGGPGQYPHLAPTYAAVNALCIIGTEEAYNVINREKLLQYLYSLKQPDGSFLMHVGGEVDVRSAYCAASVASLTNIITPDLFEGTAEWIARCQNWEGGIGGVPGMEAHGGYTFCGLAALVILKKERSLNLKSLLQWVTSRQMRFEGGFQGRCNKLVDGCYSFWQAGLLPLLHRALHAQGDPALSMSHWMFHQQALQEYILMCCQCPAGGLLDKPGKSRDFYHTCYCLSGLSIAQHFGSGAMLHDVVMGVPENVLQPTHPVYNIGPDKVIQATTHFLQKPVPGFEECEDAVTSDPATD
Protocol: All compounds were tested for in vitro inhibition of CAAX protein farnesyltransferase. […] Alternatively, recombinant CAAX protein farnesyltransferase was also used in this assay. […] Seventy-two hrs after infection, the cells were harvested and disrupted and the enzyme isolated by chromatography on Q-Sepharose.
After incubation for 30 min at 37° C., the amount of [3H]famesyl group transferred to p21H-ras was measured by precipitation with SDS/trichloroacetic acid, filtration onto nitrocellulose, and scintillation counting.
Structures of the compounds tested are reproduced below. Compound numbers also refer to example numbers above.

CAAX farnesyltransferase [3] = biological target: T1, CAAX farnesyltransferase; experiment: In vitro farnesylation of the compound by CAAX farnesyltransferase (substrate test, thin layer chromatography); format: biochemical; details: relative to tetrapeptide CVIM, 3.6 μM, 37° C., 30 min; for % farnesylation "B": diastereomer B; for % farnesylation "A": diastereomer A
Protocol: After incubation at 37° C. for 30 min, the reaction was stopped by addition of 2 μl of 250 mM EDTA, and the entire reaction mixture was spotted onto a plastic-backed Silica Gel G thin layer sheet (20×20 cm, Brinkmann Inst.) and placed in a tank containing n-propyl alcohol/ammonium hydroxide/water (6:3:1 v/v/v).

[4] = diastereomer A, read-out: EC50 (μM) "A"
[5] = diastereomer B, read-out: EC50 (μM) "B"

SMILES: COC(=O)c1cccc(CN2C(=O)C(N(C)C(=O)[C@@H]3CSC(C)N3)N=C(c3ccccc3)c3cc(Cl)ccc32)c1 (stereo partly shown) [compound 100, N-[[3-[(2-methylthiazolidine-4-carboxyl)methylamino]-2,3-dihydro-2-oxo-5-phenyl-7-chloro-1H-1,4-benzodiazepin-1-yl]methyl]-3-carboxymethylbenzene]
- EC90 [1]: 30 µM
- EC50 (CAAX farnesyltransferase [2]; [4]): 0.52 µM
- EC50 (CAAX farnesyltransferase [2]; [5]): 0.034 µM

SMILES: CN(C(=O)[C@@H](N)CSSC(C)(C)C)C1N=C(c2ccccc2)c2cc(Cl)ccc2N(CC(=O)N[C@@H](Cc2ccccc2)c2nnn[nH]2)C1=O (stereo partly drawn) [compound 119, N-[[3-[(2-amino-3-tert-butylthiomercapto-1-oxopropyl)methylamino]-2,3-dihydro-2-oxo-5-phenyl-7-chloro-1H-1,4-benzodiazepin-1-yl]acetyl]-L-phenylalanine tetrazole]
- EC90 [1]: 30 µM
- EC50 (CAAX farnesyltransferase [2]; [4]): > 3 µM
- EC50 (CAAX farnesyltransferase [2]; [5]): 0.017 µM

SMILES: COC(=O)c1cccc(CN2C(=O)C(N(C)C(=O)[C@@H](N)CSSC(C)(C)C)N=C(c3ccccc3)c3cc(Cl)ccc32)c1 (stereo partly shown) [compound 99, N-[[3-[(2-amino-3-tert-butylthiomercapto-1-oxopropyl)methylamino]-2,3-dihydro-2-oxo-5-phenyl-7-chloro-1H-1,4-benzodiazepin-1-yl]methyl]-3-carboxymethylbenzene]
- EC90 [1]: 30 µM
- EC50 (CAAX farnesyltransferase [2]; [5]): 0.38 µM

SMILES: CN(C(=O)[C@@H](N)CS)C1N=C(c2ccccc2)c2cc(Cl)ccc2N(Cc2ccc(C#N)cc2)C1=O (stereo partly shown) [compound 101, N-[[3-[(2-amino-3-mercapto-1-oxopropyl)methylamino]-2,3-dihydro-2-oxo-5-phenyl-7-chloro-1H-1,4-benzodiazepin-1-yl]methyl]4-benzonitrile]
- EC90 [1]: 20 µM
- EC50 (CAAX farnesyltransferase [2]; [4]): 3 µM
- EC50 (CAAX farnesyltransferase [2]; [5]): 0.0009 µM

SMILES: CSCC[C@H](NC(=O)CN1C(=O)C(N(C)C(=O)[C@@H](N)CSSC(C)(C)C)N=C(c2ccccc2)c2ccccc21)C(=O)OC1CCCCC1 (stereo partly drawn) [compound 112, N-[[3-[(2-amino-3-tert-butylthiomercapto-1-oxopropyl)methylamino]-2,3-dihydro-2-oxo-5-phenyl-1H-1,4-benzodiazepin-1-yl]acetyl]-L-methionine cyclohexyl ester]
- EC90 [1]: 4 µM
- EC50 (CAAX farnesyltransferase [2]; [5]): 0.2 µM

SMILES: CSCC[C@H](NC(=O)CN1C(=O)C(N(C)C(=O)[C@@H](N)CS)N=C(c2ccccc2)c2ccccc21)C(N)=O (single isomer, unassigned) [33B, N-[[3-[(2-amino-3-mercapto-1-oxopropyl)methylamino]-2,3-dihydro-2-oxo-5phenyl-1H-1,4-benzodiazepin-1-yl]acetyl]-L-methionine amide]
- relative potency in intact cells ([1]; dose dependence, FIG. 4, compared with 27B and 37B): of intermediate potency

SMILES: CSCC[C@H](NC(=O)CN1C(=O)C(N(C)C(=O)[C@@H](N)CSSC(C)(C)C)N=C(c2ccccc2)c2cc(Cl)ccc21)c1nnn[nH]1 (stereo partly drawn) [compound 116, N-[[3-[(2-amino-3-tert-butylthiomercapto-1-oxopropyl)methylamino]-2,3-dihydro-2-oxo-5-phenyl-7-chloro-1H-1,4-benzodiazepin-1-yl]acetyl]-L-methionine tetrazole]
- EC90 [1]: 60 µM
- EC50 (CAAX farnesyltransferase [2]; [4]): > 3 µM
- EC50 (CAAX farnesyltransferase [2]; [5]): 0.03 µM

SMILES: CC(C)C[C@H](NC(=O)CN1C(=O)C(N(C)C(=O)[C@@H](N)CS)N=C(c2ccccc2)c2ccccc21)c1nnn[nH]1 (stereo partly drawn) [compound 46, N-[[3-[(2-amino-3-mercapto-1-oxopropyl)methylamino]-2,3-dihydro-2-oxo-5-phenyl-1H-1,4-benzodiazepin-1-yl]acetyl]-L-leucine tetrazole]
- % farnesylation "B" (CAAX farnesyltransferase [3]): < 1%
- EC50 (CAAX farnesyltransferase [2]; [4]): 0.26 µM
- EC50 (CAAX farnesyltransferase [2]; [5]): 0.0016 µM

SMILES: CSCC[C@H](NC(=O)CN1C(=O)C(N(C)C(=O)C2CSC(C)N2)N=C(c2ccccc2)c2ccccc21)C(=O)O (stereo partly drawn) [compound 43, N-[[3-[(2-methylthiazolidine-4-carboxyl)methylamino] -2,3-dihydro-2-oxo-5-phenyl-1H-1,4-benzodiazepin-1-yl]acetyl]-L-methionine]
- % farnesylation "A" (CAAX farnesyltransferase [3]): < 1%
- % farnesylation "B" (CAAX farnesyltransferase [3]): < 1%
- EC50 (CAAX farnesyltransferase [2]; [4]): 0.32 µM
- EC50 (CAAX farnesyltransferase [2]; [5]): 0.006 µM

SMILES: COC(=O)[C@H](CCSC)NC(=O)CN1C(=O)C(N(C)C(=O)[C@@H](N)CS)N=C(c2ccccc2)c2ccccc21 (stereo partly shown) [compound 37]
- % farnesylation "A" (CAAX farnesyltransferase [3]): < 1%
- % farnesylation "B" (CAAX farnesyltransferase [3]): 2%
- EC50 (CAAX farnesyltransferase [2]; [4]): 0.19 µM
- EC50 (CAAX farnesyltransferase [2]; [5]): 0.05 µM

SMILES: CSCC[C@H](NC(=O)CN1C(=O)C(N(C)C(=O)[C@@H](N)CS)CCc2ccccc21)C(=O)O (stereo partly shown) [compound 9]
- % farnesylation "A" (CAAX farnesyltransferase [3]): < 1%
- % farnesylation "B" (CAAX farnesyltransferase [3]): < 1%
- EC50 (CAAX farnesyltransferase [2]; [4]): 1.2 µM
- EC50 (CAAX farnesyltransferase [2]; [5]): 0.024 µM

SMILES: CSCC[C@H](NC(=O)CN1C(=O)C(NC(=O)[C@@H](N)CS)N=C(c2ccccc2)c2ccccc21)C(=O)O (stereo partly drawn) [compound 28, N-[[3-[(2-amino-3-mercapto-1-oxopropyl)amino]-2,3-dihydro-2-oxo-5phenyl-1H-1,4-benzodiazepin-1-yl]acetyl]-L-methionine]
- % farnesylation "A" (CAAX farnesyltransferase [3]): 9%
- % farnesylation "B" (CAAX farnesyltransferase [3]): < 1%
- EC50 (CAAX farnesyltransferase [2]; [4]): 0.38 µM
- EC50 (CAAX farnesyltransferase [2]; [5]): 0.431 µM

SMILES: CSCC[C@H](NC(=O)CN1C(=O)C(N(C)C(=O)CCS)N=C(c2ccccc2)c2ccccc21)C(=O)O (stereo partly shown) [compound 29]
- % farnesylation "A" (CAAX farnesyltransferase [3]): < 1%
- % farnesylation "B" (CAAX farnesyltransferase [3]): < 1%
- EC50 (CAAX farnesyltransferase [2]; [4]): 1.8 µM
- EC50 (CAAX farnesyltransferase [2]; [5]): 1.8 µM

SMILES: CSCC[C@H](NC(=O)CN1C(=O)C(N(C)C(=O)[C@@H](N)CS)N=C(c2ccccc2)c2ccccc21)C(=O)O (stereo partly drawn) [compound 27, N-[[3-[(2-amino-3-mercapto-1-oxopropyl)methylamnino]-2,3-dihydro-2-oxo-5-phenyl-1H -1,4-benzodiazepin-1-yl]acetyl]-L-methionine]
- % farnesylation "A" (CAAX farnesyltransferase [3]): 5%
- % farnesylation "B" (CAAX farnesyltransferase [3]): < 1%
- EC50 (CAAX farnesyltransferase [2]; [4]): 0.8 µM
- EC50 (CAAX farnesyltransferase [2]; [5]): 0.0003 µM

SMILES: CSCC[C@H](NC(=O)CN1C(=O)C(N(C)C(=O)[C@H](CS)NC(C)=O)N=C(c2ccccc2)c2ccccc21)C(=O)O (stereo partly drawn) [compound 32, N-[[3-[(2-acetylamino-3-mercapto-1-oxopropyl)methylamino]-2,3-dihydro-2-oxo-5-phenyl-1H-1,4-benzodiazepin-1-yl]acetyl]-L-methionine]
- % farnesylation "A" (CAAX farnesyltransferase [3]): 110%
- % farnesylation "B" (CAAX farnesyltransferase [3]): < 1%
- EC50 (CAAX farnesyltransferase [2]; [4]): 1.2 µM
- EC50 (CAAX farnesyltransferase [2]; [5]): 8 µM

SMILES: CC(C)C[C@H](NC(=O)CN1C(=O)C(N(C)C(=O)[C@@H](N)CS)N=C(c2ccccc2)c2ccccc21)C(=O)O (stereo partly drawn) [compound 31, N-[[3-[(2-amino-3-mercapto-1-oxopropyl)methylamino]-2,3-dihydro-2-oxo-5-phenyl-1H -1,4-benzodiazepin-1-yl]acetyl]-L-leucine]
- % farnesylation "A" (CAAX farnesyltransferase [3]): < 1%
- % farnesylation "B" (CAAX farnesyltransferase [3]): < 1%
- EC50 (CAAX farnesyltransferase [2]; [4]): 0.084 µM
- EC50 (CAAX farnesyltransferase [2]; [5]): 0.0021 µM
